Source: ChEMBL document CHEMBL3886260, “Amide or urea containing benzothiazole inhibitors of endothelial lipase” (2015)

molecular target: T1, Endothelial lipase (Homo sapiens, UniProt Q9Y5X9); assay: Biological Assay: Endothelial lipase activity was measured using a fluorescent substrate, A10070, (Invitrogen, CA) doped into an artificial vesicle containing DMPG (Avanti Polar Lipids) as the excipient. Vesicles were prepared by combining 285 uL, of 1 mM DMPG in a 1:1 mixture of MeOH and CHCl3 with 15 uL, of 1 mM A10070 in a 1:1 mixture of MeOH and CHCl3. The mixture was dried under nitrogen and resuspended in 150 uL, of 50 mM HEPES pH 8.0 buffer containing 100 mM NaCl and 0.2 mM EDTA. The sample was allowed to sit at rt for 15 min and then was sonicated 3x4 mins on ice with a Branson Sonicator using duty cycle 1. This preparation provides vesicles with a mole fraction of 0.05 for the FRET substrate.The enzymatic assay was measured using white, opaque 96-well half area plates. Each well contained 60 uL, of assay buffer (50 mM HEPES pH 8.0, 50 mM NaCl and 1 mM CaCl2) and 2 ul of a DMSO solution containing compound of interest. Conditioned media obtained from HT-1080 cells.; assay type: cell-based
T1 sequence (Q9Y5X9 whole entry): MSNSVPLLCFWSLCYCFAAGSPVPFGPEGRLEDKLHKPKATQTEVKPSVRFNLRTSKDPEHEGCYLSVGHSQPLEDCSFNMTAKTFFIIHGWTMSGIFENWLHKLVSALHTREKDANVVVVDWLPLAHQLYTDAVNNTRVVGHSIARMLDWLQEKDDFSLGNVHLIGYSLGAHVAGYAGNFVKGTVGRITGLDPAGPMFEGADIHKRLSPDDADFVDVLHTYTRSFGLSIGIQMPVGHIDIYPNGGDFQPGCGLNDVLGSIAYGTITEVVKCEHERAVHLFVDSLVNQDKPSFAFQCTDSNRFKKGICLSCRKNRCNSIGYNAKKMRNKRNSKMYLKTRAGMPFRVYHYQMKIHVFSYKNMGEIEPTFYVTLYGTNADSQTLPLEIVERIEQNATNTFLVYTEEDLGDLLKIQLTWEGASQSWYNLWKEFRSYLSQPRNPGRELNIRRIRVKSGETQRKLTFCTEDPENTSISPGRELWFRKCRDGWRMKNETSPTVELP

IC50 | SMILES
< 10 nM | CC(C)(C)OC(=O)NC(c1nnc(CNS(N)(=O)=O)o1)c1nc2ccc(-c3ccccc3)cc2s1 (stereo not drawn)
< 10 nM | CC(=O)NC(c1nnc(C2CN(C(=O)OC(C)(C)C)C2)o1)c1nc2ccc(-c3ccccc3)cc2s1 (stereo not drawn)
< 10 nM | O=C(NC(c1nnc(CS(=O)(=O)O)o1)c1nc2ccc(-c3ccccc3)cc2s1)c1ccc(C(F)(F)F)cc1 (stereo not drawn)
